Experimental data from patent US5582832A, “Compositions for topical application to skin” (priority 1995, dated 1996).

Legend:
Type in all cases: cell-based, human
[1] = tested on: 1,25D degradation (vitamin D metabolism in keratinocytes); test: Vitamin D metabolism in keratinocytes: 1,25D degradation; conditions: for % degradation (1,25D): Table 1; for 1,25D (% degradation): Table 3, 10 uM
Method: (§1) 1. Normal human keratinocytes isolated from neonatal foreskins by trypsin treatment were grown in DME medium/10% fetal calf serum in the presence of irradiated 3T3 mouse fibroblasts for establishing dividing keratinocyte colonies. Keratinocytes were grown under the above condition until their third passage.
(§2) 80% confluent keratinocytes were incubated with 0.05 uCi of ^3 H-25D or ^3 H-1,25D for two hours or 20 hours in the presence of 1-100 uM of the different compounds. Reaction was stopped by addition of methanol and the cells and medium were extracted using chloroform:methanol. The chloroform layer was separated, dried and spotted on TLC plates. […] The amount of radioactivity in each lane was quantitated using the BioScan radioactive plate reader. The amount of radioactivity remaining in the peak area of 25D and 1,25D were calculated as % of control. The % remaining was subtracted from 100 to get the % degradation of the metabolites.
(§3) The data are expressed as mean of % degradation of 25D or 1,25D. The range is also given in parenthesis.

[2] = tested on: 25D degradation (vitamin D metabolism in keratinocytes); test: Vitamin D metabolism in keratinocytes: 25D degradation; conditions: for % degradation (25D): Table 1; for 25D (% degradation): Table 3, 10 uM
Method: as §1, §2, §3

keratinocytes = test: Rate of DNA synthesis (3H-thymidine incorporation) in keratinocytes; conditions: for keratinocyte DNA synthesis, % of the corresponding controls (1 uM Econazole) / keratinocyte DNA synthesis, % of the corresponding controls (10 uM Econazole) / keratinocyte DNA synthesis, % of the corresponding controls (no azole): Table 5; for keratinocyte DNA synthesis, % of the corresponding controls (1 uM Econazole): 1 uM ceramide + 1 uM Econazole; for keratinocyte DNA synthesis, % of the corresponding controls (10 uM Econazole): 1 uM ceramide + 10 uM Econazole; for keratinocyte DNA synthesis, % of the corresponding controls (no azole): 1 uM ceramide
Method: as §1
2. For the experiments, third passage keratinocytes were plated into a serum-free keratinocyte growth medium (KSFM; obtained from Life Technologies, Grand Island, N.Y.) containing 0.09 mM calcium. 20,000 to 30,000 cells were plated into each well of 24 well cell culture plates and grown for 5 days, until the cells reach about 80% confluence.
3. Medium was changed to fresh medium and the various test materials were added to the medium from an ethanolic stock solution (10:00 AM). The final ethanol concentration in the cultures was kept below 0.2%. Control cultures received no tested material but were dosed with 0.2% ethanol. Each compound or combination was tested in three separate wells. By 4:00 PM, 1 uCi of ^3 H-thymidine (Amersham Corp., Sp activity 40 Ci/mmol) was added to the 1 ml medium in each well. The cells were incubated overnight and […] (10:00 AM next day) the amount of ^3 -thymidine associated with the cellular DNA of keratinocytes was assessed as described below.
4. The medium was aspirated, and the wells washed with 1 ml phosphate-buffered saline. The DNA and proteins of the cells in the plate were then precipitated by adding 1 ml of ice-cold 10% trichloroacetic acid (TCA). The plates were left on ice for 30 minutes to complete the precipitation process. TCA was then aspirated and each well was then washed four times with 5% TCA. The plates were then dried on a filter pad and the cells in the wells were dissolved in 0.5 ml of 0.1N sodium hydroxide. The sodium hydroxide was then neutralized using 0.1N hydrochloric acid and the solution (1 ml total volume) was then transferred to a scintillation vial. 50 μl samples from each vial were used for protein assay using BCA protein assay reagent obtained from Pierce Chemical Company. 8 ml of a scintillation fluid (Ecolume) was added to the rest of the solution in the vial, and the vials were counted in a scintillation counter to determine the amount of radioactivity in each vial. The DNA synthesis rate was then calculated as cpm ^3 H thymidine incorporated into total cellular DNA/microgram of cell protein for each individual well. Mean and standard deviation for each group was also calculated.
Rationale for using 1,25D is that in in vivo situation, these azoles will inhibit the endogenous degradation of the 1,25D which is obtained from the circulation. Azoles will act in keratinocytes to increase the endogenous levels of 1,25D within cells. Keratinocytes (70% confluent) were incubated with 10 uM of the different azoles in the presence of 100 nM 1,25D. One of the groups was treated with 5 uM of ceramide of Formula A in the medium. After four hours, all the wells were treated with 1 uCi ^3 H-thymidine and the rate of DNA synthesis was estimated as described in the methods.
Keratinocytes were incubated with 1 or 10 uM of Econazole in the presence of 1 uM of the different ceramide analogues and 100 nM 1,25D in the medium. Thymidine incorporation was measured with an overnight incubation as described in Example 2.

[3] = 100 nM 1,25D, * = synergistic effect
[4] = Tables 5A-5I, 100 nM 1,25D, Econazole 10 uM, ceramide analogue 1 uM
[5] = Tables 5A-5I, 100 nM 1,25D, Econazole 10 uM, ceramide analogue 1 uM, mean + SD
[6] = Table 2, 1 uM, 20 hour incubation, mean of duplicate (range)

In the case of `Nc1nc2ncc(CNc3ccc(C(=O)N[C@@H](CCC(=O)O)C(=O)O)cc3)nc2c(=O)[nH]1` [folic acid], the “% degradation (1,25D)” value ([1]; 100 uM compound) is reported as 95% and the “% degradation (25D)” value ([2]; 100 uM compound) is reported as 78%.

In the case of `CCCCCCCCCCCCCCC(O)CN(CCO)C(=O)CCCCC` (centres unmarked) [Formula D], the “growth inhibition by ceramide analogues (in words)” value (keratinocytes; 1 uM, absence of azole) is reported as “significantly inhibitory”, the “keratinocyte DNA synthesis, % of the corresponding controls (1 uM Econazole)” value (from here on “keratinocyte DNA synthesis, % … (1 uM Econazole)”) (keratinocytes; 100 nM 1,25D) is reported as 97.0 + 19.5% and the “keratinocyte DNA synthesis, % of the corresponding controls (10 uM Econazole)” value (keratinocytes; [3]) is reported as 28.8 + 3.9%. For the same compound, the “keratinocyte DNA synthesis, % of the corresponding controls (no azole)” value (“keratinocyte DNA synthesis, % … (no azole)” below) (keratinocytes; [3]) was 69.5 ± 11.3%, the “DNA synthesis (% control)” value (keratinocytes; [4]) was 69.5 % control and the DNA synthesis (keratinocytes; [5]) was 20817 + 3928 cpm 3H thymidine incorporated.

With `Clc1ccc(COC(Cn2ccnc2)c2ccc(Cl)cc2Cl)cc1` (centres unmarked) [Econazole] the “DNA synthesis, % of control (100 nM 1,25D + 5 uM ceramide Formula A)” value (keratinocytes; Table 4, 10 uM azole (or no azole) + 100 nM 1,25D + 5 uM ceramide Formula A, mean + SD, * = synergistic effect, 1440 min) was 22.5 + 2.4 % of control, the “DNA synthesis, % of control (azole, only 100 nM 1,25D)” value (keratinocytes; Table 4, 10 uM azole, 100 nM 1,25D, no ceramide, mean + SD, 1440 min) was 64.5 + 3.9 % of control and the DNA synthesis (keratinocytes; Tables 4A-4F, 100 nM 1,25D, azole 10 uM, ceramide Formula A 5 uM, mean + SD) was 94719 + 5732 cpm 3H thymidine incorporated. For the same compound, the “DNA synthesis (% control)” value (keratinocytes; Tables 4A-4F, 100 nM 1,25D, azole 10 uM, 1440 min) was 64.57 % control, the “DNA synthesis (% control)” value (keratinocytes; [4]) was 50.5 % control and the DNA synthesis (keratinocytes; [5]) was 15147 + 4337 cpm 3H thymidine incorporated. For the same compound, the “blocking of 1,25D degradation (in words)” value ([1]; 1 uM, 20 hours (Table 2)) was “very effective”, the “blocking of 1,25D metabolism (in words)” value ([1]; 2 hours) was “ineffective” and the “blocking of 1,25D metabolism (in words)” value ([1]; 20 hours) was “very effective”. The “% degradation (1,25D)” value ([1]; 10 uM compound) was 2%, the “1,25D degradation (%)” value [1, 6] was 46.8 (45.1-48.6) % and the “1,25D (% degradation)” value ([1]; 2 hours) was 78%. The “1,25D (% degradation)” value ([1]; 20 hours) was 2%, the “inhibition of 1,25D metabolism (in words)” value ([1]; results of Table 1) was “most potent” and the “blocking of 25D degradation (in words)” value ([2]; 1 uM, 20 hours (Table 2)) was “very effective”. For the same compound, the “blocking of 25D metabolism (in words)” value ([2]; 2 hours) was “ineffective”, the “blocking of 25D metabolism (in words)” value ([2]; 20 hours) was “very effective” and the “% degradation (25D)” value ([2]; 10 uM compound) was 5%. For the same compound, the “25D degradation (%)” value [2, 6] was 54.1 (44.3-63.9) %, the “25D (% degradation)” value ([2]; 2 hours) was 92% and the “25D (% degradation)” value ([2]; 20 hours) was 5%. For the same compound, the “inhibition of 25D metabolism (in words)” value ([2]; results of Table 1) was “most potent”.

In the case of `CCCCCCCCCCCCCCCCN(CC(O)CO)C(=O)CCCCC` (centres unmarked) [Formula G], the “keratinocyte DNA synthesis, % … (1 uM Econazole)” value (keratinocytes; 100 nM 1,25D) is reported as 84.8 + 12.7%, the “keratinocyte DNA synthesis, % of the corresponding controls (10 uM Econazole)” value (keratinocytes; [3]) is reported as 28.2 + 15.2% and the “keratinocyte DNA synthesis, % … (no azole)” value (keratinocytes; [3]) is reported as 102.8 ± 14.4%. For the same compound, the “DNA synthesis (% control)” value (keratinocytes; [4]) was 102.8 % control and the DNA synthesis (keratinocytes; [5]) was 30794 + 5311 cpm 3H thymidine incorporated.

In the case of `Cc1ncc(C[n+]2csc(CCO)c2C)c(N)n1` [Thiamine], the “% degradation (1,25D)” value ([1]; 100 uM compound) is reported as 77% and the “% degradation (25D)” value ([2]; 100 uM compound) is reported as 85%.

In the case of `CCCCCCCCCCCCCCCCN(CC(O)CO)C(C)=O` (centres unmarked) [Formula F], the “keratinocyte DNA synthesis, % … (1 uM Econazole)” value (keratinocytes; 100 nM 1,25D) is reported as 84.3 + 1.96%, the “keratinocyte DNA synthesis, % of the corresponding controls (10 uM Econazole)” value (keratinocytes; [3]) is reported as 40.9 + 9.0% and the “keratinocyte DNA synthesis, % … (no azole)” value (keratinocytes; [3]) is reported as 90.3 ± 21.4%. The “DNA synthesis (% control)” value (keratinocytes; [4]) was 90.3 % control and the DNA synthesis (keratinocytes; [5]) was 27051 + 7858 cpm 3H thymidine incorporated.

For `CCCCCCCCCCCCCCC(O)CN(CCO)C(C)=O` (centres unmarked) [Formula C], the “keratinocyte DNA synthesis, % … (1 uM Econazole)” value (keratinocytes; 100 nM 1,25D) was 78.0 + 15.1%, the “keratinocyte DNA synthesis, % of the corresponding controls (10 uM Econazole)” value (keratinocytes; [3]) was 47.2 + 33.6% and the “keratinocyte DNA synthesis, % … (no azole)” value (keratinocytes; [3]) was 77.7 ± 7.4%. The “DNA synthesis (% control)” value (keratinocytes; [4]) was 77.7 % control and the DNA synthesis (keratinocytes; [5]) was 23288 + 2737 cpm 3H thymidine incorporated.
